One experiment concerns KMS-11. As to the kind of experiment: Cell viability assay (MTS). The following applies: Homo sapiens, 72 hours, mean ± standard deviation. In kind it is cell-based. The procedure: (§1) Human multiple myeloma cell lines 8226, H929, JJN3, KMH11, KMS11, KMS18, LP1, MM1S, OPM2 and U266 were grown in Iscove modified Dulbecco's medium (IMDM). Human leukemia cell lines K562, OCI-AML2 and U937 were cultured in RPMI-1640 medium. Primary peripheral blood mononuclear cells were isolated from multiple myeloma patients by Ficoll density gradient centrifugation and bone marrow aspirates were obtained from multiple myeloma patients at the Princess Margaret Cancer Centre of the University Health Network (UHN; Toronto, ON, Canada). Primary cells were cultured in IMDM. The collection and use of human tissue for this study were approved by the UHN institutional ethics review board. All cell culture media were obtained from the Ontario Cancer Institute Tissue Culture Media Facility (Toronto, ON, Canada) and were supplemented with 10% fetal calf serum, […] (Hyclone, Logan, Utah). All cells were grown in a humidified incubator at 37° C. with 5% CO2.
(§2) Cellular viability was primarily assessed by 3-(4,5-dimethylthiazol-2-yl)-5-(3-carboxymethoxyphenyl)-2-(4-sulfophenyl)-2H-tetrazolium (MTS) assay according to the manufacturer's instructions (Promega; Madison, Wis.). Cells were first seeded at a density of 10,000 cells per well in tissue culture-treated 96-well plates. Two hours after seeding, cells were treated with compounds for 72 hours at concentrations as indicated. As a control, cells were treated with DMSO alone in every assay plate. Following treatment and the MTS assay, cell viability was independently confirmed by reading the optical density (O.D.) at 490 nm and by exclusion of trypan blue stain (Invitrogen; Burlington, ON, Canada). The viability of primary mononuclear cells was determined by staining with Annexin V.
(§3) Table 9 summarizes data obtained for representative compounds of Formula I for cell viability and CT-L proteasome activity using OCI-AML-2 and KMS-11 cell lines.

Another experiment concerns OCI-AML-2. As to the kind of experiment: Cell viability assay (MTS). The settings on record: Homo sapiens, OCI-AML2, 72 hours, mean ± standard deviation. Format: cell-based. Here is the method: as §1, §2, §3
Experiment [1] deals with chymotrypsin-like (CT-L) proteasome activity, KMS-11. As to the kind of experiment: Proteasome enzymatic activity (tumor cell lysates). Format: biochemical, human. The following applies: KMS-11 cell lysate; mean ± standard deviation. Here is the method:
(§4) Cells were harvested by centrifugation at 1,200 rpm at room temperature. Cell pellets were washed with PBS and lysed with assay lysis buffer (50 mM HEPES (N-2-hydroxyethylpiperazine-N′-2-ethanesulfonic acid), pH 7.5; 150 mM NaCl; 1% Triton X-100; 2 mM ATP). Cell lysates were incubated on ice for 30 minutes, mixed by vortex every 5 minutes, and then centrifuged at 12,000 g for 10 minutes. The supernatant was transferred to a 96-well plate. For each assay, 10 μg of total protein were incubated for 1 hour at 37° C. with increasing concentrations (1 nM to 10 μM) of test compound diluted in assay buffer (50 mM Tris-HCl (tris(hydroxymethyl)aminomethane-HCl), pH 7.5; 150 mM NaCl). DMSO alone was used as a control in every assay plate. After incubation, a specific fluorogenic proteasome substrate was added to each assay reaction at a final concentration of 40 μM in a total volume of 100 μL. N-Succinyl-Leu-Leu-Val-Tyr-7-amino-4-methylcoumarin (Suc-Leu-Leu-Val-Tyr-AMC) was used for measuring chymotrypsin-like (CT-L) activity, t-butoxycarbonyl-Leu-Arg-Arg-7-amino-4-methylcoumarin (Boc-Leu-Arg-Arg-AMC) for trypsin-like (T-L) activity, and benzyloxycarbonyl-L-leucyl-L-leucyl-L-glutamyl-7-amino-4-methylcoumarin (Z-Leu-Leu-Glu-AMC) for caspase-like (C-L) activity. The excitation wavelength was set at 360 nm and the fluorescence emission wavelength of AMC was detected at 460 nm. The fluorescence of free AMC released during the enzymatic reaction was measured with a SpectraMax M5 fluorescent spectrophotometric plate reader (Molecular Devices, Sunnyvale, Calif.). AMC release rate was measured at 37° C. in a kinetic mode, recording every 5 minutes for 30 minutes. Experiments were performed in triplicate and repeated at least twice.
as §3

Experiment [2] has as its system chymotrypsin-like (CT-L) proteasome activity, OCI-AML-2. As to the kind of experiment: Proteasome enzymatic activity (tumor cell lysates). In kind it is biochemical, human. The following applies: OCI-AML-2 cell lysate; mean ± standard deviation. Here is the method: as §4, §3
Experiment [3] relates to primary CD138+ myeloma cells. The following applies: compared with Example 1; Trudel et al. ASH 2009; cited from earlier work.

The values that follow come from US9441012B2, “Fluorinated epoxyketone-based compounds and uses thereof as proteasome inhibitors” (FLUORINOV PHARMA INC., priority 2012, dated 2016).

As usually defined, the IC50 is the concentration that inhibits the measured activity by half. Turning to `CC(C)C[C@H](NC(=O)[C@H](COC(F)F)NC(=O)CN1CCOCC1)C(=O)N[C@@H](Cc1ccccc1)C(=O)[C@@]1(C)CO1` [Example 27, (2S)-N-[(1S)-1-benzyl-2-[(2R)-2-methyloxiran-2-yl]-2-oxo-ethyl]-2-[[(2S)-3-(difluoromethoxy)-2-[(2-morpholinoacetyl)amino]propanoyl]amino]-4-methylpentanamide], the IC50 with KMS-11 stood at 250 ± 25.9 nM; in the experiment on OCI-AML-2 it was 401 ± 275 nM; in experiment [1], 742 ± 83.7 nM; in experiment [2] it was 600 ± 57.5 nM.

As to `CC(C)C[C@H](NC(=O)[C@H](COC(F)F)NC(=O)CN1CCOCC1)C(=O)N[C@@H](CC(C)C)C(=O)[C@@]1(C)CO1` [Example 28, (2S)-2-[[(2S)-3-(difluoromethoxy)-2-[(2-morpholino-acetyl)amino]propa-noyl]amino]-4-methyl-N-[(1S)-3-methyl-1-[(2R)-2-methyloxirane-2-carbonyl]butyl]pentanamide], the IC50 in the experiment with KMS-11 was determined as 100 ± 18.7 nM; in the experiment with OCI-AML-2, 132 ± 87.5 nM; in experiment [1], 575 ± 62.7 nM; in experiment [2] it was 556 ± 123 nM.

As for `CC(C)C[C@H](NC(=O)[C@H](COC(F)F)NC(=O)[C@H](COC(F)F)NC(=O)CN1CCOCC1)C(=O)[C@@]1(C)CO1` [Example 33, (2S)-3-(difluoromethoxy)-N-[(1S)-1-(difluoromethoxymethyl)-2-[[(1S)-3-methyl-1-[(2R)-2-methyloxirane-2-carbonyl]butyl]amino]-2-oxo-ethyl]-2-[(2-morpholinoacetyl)amino]propanamide], the IC50 stood at 46.7 ± 9.89 nM in the experiment with KMS-11, 140 ± 53.5 nM in the experiment with OCI-AML-2, 704 ± 173 nM in experiment [1] and 599 ± 77.7 nM in experiment [2].

Take `CC(C)C[C@H](NC(=O)[C@H](CCc1ccccc1)NC(=O)CN1CCOCC1)C(=O)N[C@@H](Cc1ccccc1)C(=O)N[C@@H](CC(C)C)C(=O)[C@@]1(C)CO1` [carfilzomib]: the “therapeutic index between CD138+ and CD-138− in patient samples” value in experiment [3] is “much narrower therapeutic index”.
